Assay results as given in ChEMBL document CHEMBL1153301, “Identification and SAR of novel diaminopyrimidines. Part 1: The discovery of RO-4, a dual P2X(3)/P2X(2/3) antagonist for the treatment of pain” (Bioorg Med Chem Lett, 2009).

Columns and labels:
P2X purinoceptor 3 = molecular target: T1, P2X purinoceptor 3 (Rattus norvegicus, UniProt P49654); assay: Antagonist activity at rat recombinant P2X3 receptor expressed in CHO cells by FLIPR assay
T1 sequence (P49654 whole entry): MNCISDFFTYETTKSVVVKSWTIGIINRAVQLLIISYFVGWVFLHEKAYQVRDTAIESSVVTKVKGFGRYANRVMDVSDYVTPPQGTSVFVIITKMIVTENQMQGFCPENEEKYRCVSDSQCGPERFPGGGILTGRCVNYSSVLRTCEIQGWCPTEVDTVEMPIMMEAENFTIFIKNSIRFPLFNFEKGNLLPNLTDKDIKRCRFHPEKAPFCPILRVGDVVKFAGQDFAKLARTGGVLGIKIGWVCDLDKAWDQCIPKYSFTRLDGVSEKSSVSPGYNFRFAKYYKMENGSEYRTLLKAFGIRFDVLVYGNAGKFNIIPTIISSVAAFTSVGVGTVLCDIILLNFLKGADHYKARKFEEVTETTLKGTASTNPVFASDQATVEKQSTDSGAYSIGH

[1] = molecular target: T2, P2X2/P2X3 heterotrimeric receptor (Homo sapiens, UniProt P56373+Q9UBL9); assay: Antagonist activity at human recombinant P2X2/3 receptor expressed in human 1321N1 cells by FLIPR assay; type: functional, cell-based
T2 sequence (Q9UBL9 whole entry): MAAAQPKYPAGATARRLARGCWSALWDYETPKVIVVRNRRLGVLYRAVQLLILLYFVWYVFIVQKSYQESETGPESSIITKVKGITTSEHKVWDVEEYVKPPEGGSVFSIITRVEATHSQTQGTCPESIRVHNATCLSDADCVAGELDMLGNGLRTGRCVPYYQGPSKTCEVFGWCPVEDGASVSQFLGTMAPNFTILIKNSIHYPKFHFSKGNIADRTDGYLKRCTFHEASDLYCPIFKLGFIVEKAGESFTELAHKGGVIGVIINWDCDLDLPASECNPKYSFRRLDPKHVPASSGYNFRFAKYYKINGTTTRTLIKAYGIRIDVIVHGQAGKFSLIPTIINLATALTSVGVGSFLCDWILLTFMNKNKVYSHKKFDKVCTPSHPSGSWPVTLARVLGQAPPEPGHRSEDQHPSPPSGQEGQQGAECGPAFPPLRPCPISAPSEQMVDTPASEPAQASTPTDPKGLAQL
T2 sequence (P56373 whole entry): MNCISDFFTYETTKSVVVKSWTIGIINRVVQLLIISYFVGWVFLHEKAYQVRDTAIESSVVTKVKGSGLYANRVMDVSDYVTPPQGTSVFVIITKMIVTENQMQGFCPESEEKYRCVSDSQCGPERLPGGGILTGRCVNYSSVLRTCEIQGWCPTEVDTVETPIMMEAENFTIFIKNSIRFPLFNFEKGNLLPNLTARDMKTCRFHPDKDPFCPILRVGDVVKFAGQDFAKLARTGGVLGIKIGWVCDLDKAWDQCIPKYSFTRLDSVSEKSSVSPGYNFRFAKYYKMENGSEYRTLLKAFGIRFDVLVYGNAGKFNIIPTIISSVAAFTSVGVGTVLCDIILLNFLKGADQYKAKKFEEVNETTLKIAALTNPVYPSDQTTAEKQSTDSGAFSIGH

Caco-2 = assay: Ratio of permeability from basolateral to apical side over apical to basolateral side in human Caco-2 cells; type: ADME, cell-based
[2] = molecular target: 5-hydroxytryptamine receptor 6 (Homo sapiens, UniProt P50406); assay: Inhibition of 5HT6 receptor
Sequence of 5-hydroxytryptamine receptor 6 (P50406 whole entry): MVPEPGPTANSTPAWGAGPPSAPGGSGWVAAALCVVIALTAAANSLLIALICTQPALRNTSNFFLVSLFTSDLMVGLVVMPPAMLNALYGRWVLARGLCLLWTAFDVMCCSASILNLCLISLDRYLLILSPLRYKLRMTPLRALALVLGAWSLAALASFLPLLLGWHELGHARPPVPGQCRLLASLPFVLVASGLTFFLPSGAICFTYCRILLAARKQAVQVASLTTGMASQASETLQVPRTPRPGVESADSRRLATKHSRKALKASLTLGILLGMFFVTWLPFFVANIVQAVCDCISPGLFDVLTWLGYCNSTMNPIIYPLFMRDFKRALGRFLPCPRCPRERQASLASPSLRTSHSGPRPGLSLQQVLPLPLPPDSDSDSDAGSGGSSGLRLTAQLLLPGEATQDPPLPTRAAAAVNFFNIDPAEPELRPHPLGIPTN

[3] = Inhibition of ML1 receptor
[4] = molecular target: 5-hydroxytryptamine receptor 2A (Homo sapiens, UniProt P28223); assay: Inhibition of 5HT2A receptor
Sequence of 5-hydroxytryptamine receptor 2A (P28223 whole entry): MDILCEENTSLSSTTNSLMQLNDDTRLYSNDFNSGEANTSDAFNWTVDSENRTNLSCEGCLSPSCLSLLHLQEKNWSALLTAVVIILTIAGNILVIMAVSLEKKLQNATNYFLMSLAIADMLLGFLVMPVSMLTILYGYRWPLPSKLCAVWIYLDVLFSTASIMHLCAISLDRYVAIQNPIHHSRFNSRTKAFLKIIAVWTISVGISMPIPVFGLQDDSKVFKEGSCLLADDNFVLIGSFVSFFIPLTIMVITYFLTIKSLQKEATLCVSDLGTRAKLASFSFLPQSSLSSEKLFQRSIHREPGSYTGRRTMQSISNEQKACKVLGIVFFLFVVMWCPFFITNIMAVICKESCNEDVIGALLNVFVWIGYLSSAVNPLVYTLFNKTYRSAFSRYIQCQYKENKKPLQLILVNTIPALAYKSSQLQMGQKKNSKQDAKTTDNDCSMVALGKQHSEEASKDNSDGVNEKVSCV

P2X purinoceptor 2 = molecular target: T3, P2X purinoceptor 2 (Homo sapiens, UniProt Q9UBL9); assay: Inhibition of P2X2 receptor
T3 sequence (Q9UBL9 whole entry): T2 sequence (Q9UBL9 whole entry)

[5] = molecular target: T4, 5-hydroxytryptamine receptor 3A (Homo sapiens, UniProt P46098); assay: Inhibition of 5HT3 receptor
T4 sequence (P46098 whole entry): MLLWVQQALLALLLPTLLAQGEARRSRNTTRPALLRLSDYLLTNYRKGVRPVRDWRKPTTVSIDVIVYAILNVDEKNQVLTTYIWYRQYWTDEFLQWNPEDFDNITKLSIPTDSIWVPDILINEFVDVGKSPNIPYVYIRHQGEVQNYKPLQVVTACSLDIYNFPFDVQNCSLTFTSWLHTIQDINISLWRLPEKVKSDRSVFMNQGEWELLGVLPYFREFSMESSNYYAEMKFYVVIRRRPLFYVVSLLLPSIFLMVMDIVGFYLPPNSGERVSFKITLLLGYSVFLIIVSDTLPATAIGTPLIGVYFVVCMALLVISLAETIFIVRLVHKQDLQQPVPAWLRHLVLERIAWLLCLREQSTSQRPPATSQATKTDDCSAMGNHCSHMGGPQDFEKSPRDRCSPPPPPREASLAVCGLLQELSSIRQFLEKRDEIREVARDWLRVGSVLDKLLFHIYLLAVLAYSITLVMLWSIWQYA

P2X purinoceptor 7 = molecular target: T5, P2X purinoceptor 7 (Homo sapiens, UniProt Q99572); assay: Inhibition of P2X7 receptor
T5 sequence (Q99572 whole entry): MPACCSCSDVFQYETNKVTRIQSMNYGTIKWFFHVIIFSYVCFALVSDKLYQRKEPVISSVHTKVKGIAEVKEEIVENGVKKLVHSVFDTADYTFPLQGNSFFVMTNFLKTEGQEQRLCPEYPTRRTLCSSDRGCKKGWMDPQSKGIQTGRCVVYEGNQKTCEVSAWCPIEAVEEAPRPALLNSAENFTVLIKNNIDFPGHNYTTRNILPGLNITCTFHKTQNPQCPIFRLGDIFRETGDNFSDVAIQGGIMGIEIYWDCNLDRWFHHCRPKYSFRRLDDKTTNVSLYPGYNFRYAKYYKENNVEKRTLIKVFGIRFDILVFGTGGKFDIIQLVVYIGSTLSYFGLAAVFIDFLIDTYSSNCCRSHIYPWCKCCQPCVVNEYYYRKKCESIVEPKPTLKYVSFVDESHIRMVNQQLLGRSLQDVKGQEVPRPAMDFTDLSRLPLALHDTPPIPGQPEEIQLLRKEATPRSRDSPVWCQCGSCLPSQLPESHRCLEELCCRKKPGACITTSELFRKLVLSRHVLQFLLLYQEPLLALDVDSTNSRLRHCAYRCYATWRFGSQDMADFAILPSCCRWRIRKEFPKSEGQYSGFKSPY

[6] = Clearance in dog; type: ADME, organism-based, Canis lupus familiaris; settings: in vivo
P2X purinoceptor 5 = P2X purinoceptor 5 (Homo sapiens, UniProt Q93086); assay: Inhibition of P2X5 receptor
Sequence of P2X purinoceptor 5 (Q93086 whole entry): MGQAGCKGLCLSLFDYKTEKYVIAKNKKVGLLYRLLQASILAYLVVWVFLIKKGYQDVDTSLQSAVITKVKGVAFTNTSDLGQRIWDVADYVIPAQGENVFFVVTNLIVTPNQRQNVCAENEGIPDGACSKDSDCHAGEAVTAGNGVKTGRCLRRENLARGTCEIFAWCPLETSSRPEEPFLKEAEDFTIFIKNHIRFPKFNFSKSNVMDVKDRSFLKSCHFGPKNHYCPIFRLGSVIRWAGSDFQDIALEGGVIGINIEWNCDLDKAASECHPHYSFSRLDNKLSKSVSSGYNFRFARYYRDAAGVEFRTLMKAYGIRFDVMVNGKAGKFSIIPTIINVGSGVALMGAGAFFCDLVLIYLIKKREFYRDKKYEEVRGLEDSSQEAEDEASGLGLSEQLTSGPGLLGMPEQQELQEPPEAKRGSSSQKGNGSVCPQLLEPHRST

P2X purinoceptor 4 = molecular target: T6, P2X purinoceptor 4 (Homo sapiens, UniProt Q99571); assay: Inhibition of P2X4 receptor
T6 sequence (Q99571 whole entry): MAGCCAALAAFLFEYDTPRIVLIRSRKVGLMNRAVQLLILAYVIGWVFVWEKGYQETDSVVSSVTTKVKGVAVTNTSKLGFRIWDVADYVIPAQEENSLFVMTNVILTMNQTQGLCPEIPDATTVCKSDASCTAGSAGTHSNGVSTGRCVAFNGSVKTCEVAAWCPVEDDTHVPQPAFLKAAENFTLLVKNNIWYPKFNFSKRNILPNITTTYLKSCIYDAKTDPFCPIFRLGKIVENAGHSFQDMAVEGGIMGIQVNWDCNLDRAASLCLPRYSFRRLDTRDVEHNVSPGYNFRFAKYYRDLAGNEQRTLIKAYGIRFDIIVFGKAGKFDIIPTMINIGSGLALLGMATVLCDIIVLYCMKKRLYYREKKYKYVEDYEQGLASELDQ

Histamine H2 receptor = Histamine H2 receptor (Homo sapiens, UniProt P25021); assay: Inhibition of histamine H2 receptor
Sequence of Histamine H2 receptor (P25021 whole entry): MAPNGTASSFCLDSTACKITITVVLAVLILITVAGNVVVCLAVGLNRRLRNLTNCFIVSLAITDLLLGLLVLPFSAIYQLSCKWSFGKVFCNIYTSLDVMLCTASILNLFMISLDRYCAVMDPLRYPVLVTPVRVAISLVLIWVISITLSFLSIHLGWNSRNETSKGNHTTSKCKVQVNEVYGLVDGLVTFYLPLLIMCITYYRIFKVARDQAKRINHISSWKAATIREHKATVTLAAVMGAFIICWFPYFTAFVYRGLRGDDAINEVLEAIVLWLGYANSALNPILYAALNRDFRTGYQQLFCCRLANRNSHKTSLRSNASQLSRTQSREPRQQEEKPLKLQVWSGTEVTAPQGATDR

P2X purinoceptor 1 = molecular target: T7, P2X purinoceptor 1 (Homo sapiens, UniProt P51575); assay: Inhibition of P2X1 receptor
T7 sequence (P51575 whole entry): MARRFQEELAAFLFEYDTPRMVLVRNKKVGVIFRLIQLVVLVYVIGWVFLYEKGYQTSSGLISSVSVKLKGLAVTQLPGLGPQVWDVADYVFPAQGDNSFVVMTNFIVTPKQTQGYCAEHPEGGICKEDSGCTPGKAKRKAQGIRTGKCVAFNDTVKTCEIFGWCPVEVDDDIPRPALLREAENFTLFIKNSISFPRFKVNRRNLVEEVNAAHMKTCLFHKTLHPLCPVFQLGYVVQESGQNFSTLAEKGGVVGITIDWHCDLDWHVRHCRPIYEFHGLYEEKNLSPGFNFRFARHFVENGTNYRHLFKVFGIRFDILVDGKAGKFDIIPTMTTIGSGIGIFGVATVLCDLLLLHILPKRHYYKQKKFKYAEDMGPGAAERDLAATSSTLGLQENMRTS

COc1ccc(C(C)C)c(Oc2cnc(N)nc2N)c1
IC50 (P2X purinoceptor 3): 398 nM | IC50 [1]: 158 nM

COc1cc(C(C)C)c(Oc2cnc(N)nc2N)cc1C
IC50 (P2X purinoceptor 3): 100 nM | IC50 [1]: 398 nM

COc1cc(C(C)C)c(Oc2cnc(N)nc2N)cc1Cl
IC50 (P2X purinoceptor 3): 25.1 nM | IC50 [1]: 100 nM

COc1cc(C(C)C)c(Oc2cnc(N)nc2N)cc1C#N
IC50 (P2X purinoceptor 3): 631 nM | IC50 [1]: 2510 nM

COc1cc(Cc2cnc(N)nc2N)c(C2CCC2)cc1OC
IC50 (P2X purinoceptor 3): > 10000 nM | IC50 [1]: > 10000 nM

COc1cc(C(C)C)c(C(O)c2cnc(N)nc2N)cc1OC (stereo not drawn)
IC50 (P2X purinoceptor 3): > 10000 nM | IC50 [1]: > 10000 nM

COc1cc(C(=O)c2cnc(N)nc2N)c(C(C)C)cc1OC
IC50 (P2X purinoceptor 3): > 10000 nM | IC50 [1]: > 10000 nM

COc1cc(C(C)C)c(Oc2cnc(N)nc2N)cc1S(C)(=O)=O
IC50 (P2X purinoceptor 3): 100 nM | IC50 [1]: 1000 nM

COc1cc(C(C)C)c(Oc2cnc(N)nc2N)cc1-c1ncc[nH]1
IC50 (P2X purinoceptor 3): 158 nM | IC50 [1]: 631 nM

COc1cc(C(C)C)c(Oc2cnc(N)nc2N)cc1C1=NCCN1
IC50 (P2X purinoceptor 3): > 10000 nM | IC50 [1]: > 10000 nM

COc1cc(Oc2cnc(N)nc2N)c(C(C)C)cc1I
IC50 (P2X purinoceptor 3): 39.8 nM | IC50 [1]: 398 nM

COc1cc(C(C)C)c(Oc2cnc(N)nc2N)cc1C(C)C
IC50 (P2X purinoceptor 3): 501 nM | IC50 [1]: 2000 nM

COc1cc(Cc2cnc(N)nc2N)c(C2CC2)cc1OC
IC50 (P2X purinoceptor 3): 1260 nM | IC50 [1]: > 10000 nM

COc1cc(Cc2cnc(N)nc2N)c(CC(C)C)cc1OC
IC50 (P2X purinoceptor 3): > 10000 nM | IC50 [1]: 10000 nM

CCc1cc(OC)c(OC)cc1Cc1cnc(N)nc1N
IC50 [1]: > 10000 nM

COc1cc(Cc2cnc(N)nc2N)c(C(C)C)cc1OC
IC50 [1]: 2000 nM

CCc1cc(OC)c(OC)cc1Oc1cnc(N)nc1N
IC50 (P2X purinoceptor 3): 158 nM | IC50 [1]: 2000 nM

COc1cc(Oc2cnc(N)nc2N)c(C(C)C)cc1OC
IC50 (P2X purinoceptor 3): 25.1 nM

CC(C)c1ccccc1Oc1cnc(N)nc1N
IC50 (P2X purinoceptor 3): 3980 nM | IC50 [1]: 2000 nM

COc1cc(Oc2cnc(N)nc2N)c(C(C)C)cc1C#N
IC50 (P2X purinoceptor 3): > 10000 nM | IC50 [1]: > 10000 nM

COc1cc(C(C)C)c(Oc2cnc(N)nc2N)cc1F
IC50 (P2X purinoceptor 3): 3160 nM | IC50 [1]: 1580 nM

COc1cc(C(C)C)c(Oc2cnc(N)nc2N)cc1-c1ccccc1
IC50 (P2X purinoceptor 3): 1000 nM | IC50 [1]: 2510 nM

COc1cc(C(C)C)c(Oc2cnc(N)nc2N)cc1Br
IC50 (P2X purinoceptor 3): 20 nM | IC50 [1]: 79.4 nM

C#Cc1cc(Oc2cnc(N)nc2N)c(C(C)C)cc1OC
IC50 [1]: 12.6 nM

COc1cc(Cc2cnc(N)nc2N)c(C(C)(C)C)cc1OC
IC50 [1]: > 10000 nM

COc1cc(C(C)C)c(Oc2cnc(N)nc2N)cc1C(=O)O
IC50 (P2X purinoceptor 3): 158 nM | IC50 [1]: 316 nM

CCc1cc(Oc2cnc(N)nc2N)c(C(C)C)cc1OC
IC50 (P2X purinoceptor 3): 50.1 nM | IC50 [1]: 158 nM

COc1ccc(Oc2cnc(N)nc2N)c(C(C)C)c1
IC50 (P2X purinoceptor 3): 1580 nM | IC50 [1]: 398 nM

CCc1cc(OC)c(OC)cc1CCc1cnc(N)nc1N
IC50 (P2X purinoceptor 3): > 10000 nM | IC50 [1]: > 10000 nM

COc1cc(C(C)C)c(Oc2cnc(N)nc2N)cc1C(N)=O
IC50 (P2X purinoceptor 3): 100 nM | IC50 [1]: 1580 nM

COc1cc(C(C)C)c(Oc2cnc(N)nc2N)cc1-c1nnn[nH]1
IC50 (P2X purinoceptor 3): 39.8 nM | IC50 [1]: 316 nM

COc1cc(Oc2cnc(N)nc2N)c(C(C)C)cc1-c1ccc(F)cc1
IC50 (P2X purinoceptor 3): 2510 nM | IC50 [1]: 7940 nM

COc1cc(Oc2cnc(N)nc2N)c(C(C)C)cc1Br
IC50 (P2X purinoceptor 3): 79.4 nM | IC50 [1]: 316 nM

CCCc1cc(OC)c(OC)cc1Cc1cnc(N)nc1N
IC50 [1]: > 10000 nM

COc1cc(C(C)C)c(Oc2cnc(N)nc2N)cc1I
Ratio (Caco-2): 1 | pIC50 (P2X purinoceptor 3; cho): 8 | Ki [2]: 1000 nM | Ki [3]: 1000 nM | Ki [4]: 1000 nM | IC50 (P2X purinoceptor 2): > 10000 nM | Ki [5]: 1000 nM | IC50 (P2X purinoceptor 7): > 10000 nM | clearance [6]: 13 mL/min/kg | IC50 [1]: 79.4 nM | IC50 (P2X purinoceptor 5): > 10000 nM | IC50 (P2X purinoceptor 4): > 10000 nM | Ki (Histamine H2 receptor): 1000 nM | IC50 (P2X purinoceptor 1): > 10000 nM

COc1cc(C)c(Cc2cnc(N)nc2N)cc1OC [ORMETOPRIM]
IC50 (P2X purinoceptor 3): > 10000 nM | IC50 [1]: > 10000 nM
